Data on 27 compounds can be found in patent US12473289B2, “Heterocyclic compounds as delta-5 desaturase inhibitors and methods of use” (Amgen Inc., priority 2019, dated 2025).

For this assay, the target named is Delta-5-Desaturase (D5D) (Homo sapiens (Human), UniProt O60427). In words: In vitro measurement of Delta-5-Desaturase inhibitory activity using DGLA-CoA and Arachidonyl-CoA mass spectrometric assays. Type of assay: biochemical. As to conditions: membrane preparations of D5D-overexpressing HEK293 6E cells; averaged over at least two independent runs. The procedure: In vitro Measurement of Delta-5-Desaturase Inhibitory Activity using DGLA-CoA and Arachidonyl-CoA Mass Spectrometric Assays
Membrane preparations of D5D-overexpressing HEK293 6E cells were prepared in which the total protein concentration was 5.6 mg/mL. Stock D5D membrane preparations were diluted in D5D assay buffer (25 mM 2-amino-2-(hydroxymethyl)-1,3-propanediol, pH 7.5 containing 10 mM MgCl2, 1 mM octyl glucoside (SigmaAldrich 0-8001), 1 mM tris(2-carboxyethyl)phosphine hydrochloride (SigmaAldrich 646547)) to a final D5D membrane concentration of 10 μg/mL in an assay plate containing serially diluted test compounds. To 15 μL of this D5D preparation was added 15 μL of a substrate solution (0.25 mM NADH (nicotinamide adenine dinucleotide, Roche Diag. 10107735001), 0.25 mM adenosine triphosphate (SigmaAldrich A-3377), 0.05 mM coenzyme A hydrate (SigmaAldrich C-4282), and 0.01 mM DGLA (dihomo-g-linolenic acid, Sigma E-4504) in the same D5D assay buffer. After one-hour incubation at ambient temperature acetonitrile (30 μL) was added to quench the reaction and plates were centrifuged for 10 min @3,000 rpm. Mass spectrometric analysis involved a Rapidfire 360 SPE system coupled to an ABSciex API4000 Triple Quadrupole mass spectrometer using a C18 SPE cartridge (G9203-80105) with ionization in negative mode (solvent A=100% water; solvent B=100% acetonitrile, each solvent containing 5 mM ammonium acetate). DGLA-CoA and Arachidonyl-CoA were detected by multiple reaction monitoring (MRM) of the doubly charged parent ions at m/z 526.6 and 525.6, respectively.
Sx is value from unknown sample, So is value from DMSO alone and Sc is value from no enzyme well. For CRC analysis, the % of inhibitions were analyzed with 4 Parameter Logistic Model or Sigmoidal Dose-Response Model using XLfit (IDBS, Guilford, UK). The potency of the test item was expressed as IC50 nM, corresponding to the test item concentration able to inhibit the 50% of the enzyme maximal response. IC50 values were averaged values determined by at least two independent runs.
This assay may be used to test any of the compounds described herein to assess and characterize a compound's ability to inhibit D5D.

Sequence of Delta-5-Desaturase (D5D) (O60427 whole entry, species assumed): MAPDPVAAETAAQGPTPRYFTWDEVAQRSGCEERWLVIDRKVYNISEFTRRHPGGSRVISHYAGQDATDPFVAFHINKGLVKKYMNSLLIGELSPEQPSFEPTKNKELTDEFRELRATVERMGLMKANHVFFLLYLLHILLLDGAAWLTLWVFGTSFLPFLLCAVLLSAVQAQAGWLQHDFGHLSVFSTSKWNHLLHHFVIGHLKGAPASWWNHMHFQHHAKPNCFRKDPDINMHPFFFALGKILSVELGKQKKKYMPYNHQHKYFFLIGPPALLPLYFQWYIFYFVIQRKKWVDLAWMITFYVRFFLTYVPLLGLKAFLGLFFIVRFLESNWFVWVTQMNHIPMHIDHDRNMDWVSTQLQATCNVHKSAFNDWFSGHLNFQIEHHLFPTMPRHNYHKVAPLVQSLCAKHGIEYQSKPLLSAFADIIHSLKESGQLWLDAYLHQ

Turning to `COc1ccn2c(=O)c(-c3cnc(OCC(F)(F)F)c(F)c3)c(C(F)(F)F)nc2c1` [Example 7-3, 3-(5-fluoro-6-(2,2,2-trifluoroethoxy)-3-pyridinyl)-8-methoxy-2-(trifluoromethyl)-4H-pyrido[1,2-a]pyrimidin-4-one], the midpoint of inhibition, the IC50, lay at 4050 nM. As to `COc1ccn2c(=O)c(-c3cnn(CCC(F)(F)F)c3)c(C(F)F)nc2c1` [Example 1-14, 2-(difluoromethyl)-8-methoxy-3-(1-(3,3,3-trifluoropropyl)-1H-pyrazol-4-yl)-4H-pyrido[1,2-a]pyrimidin-4-one], inhibition was half-maximal at 22.9 nM (IC50). For the compound `COc1ccn2c(=O)c(-c3cnn(CC4CC4(F)F)c3)c(C(F)(F)F)nc2c1` (racemic) [Example 39-42, 3-{1-[(2,2-difluorocyclopropyl)methyl]-1H-pyrazol-4-yl}-8-methoxy-2-(trifluoromethyl)-4H-pyrido[1,2-a]pyrimidin-4-one], the half-maximal inhibitory concentration (IC50) (as a rule, the concentration that inhibits the measured activity by half) came out at 11.4 nM. In the case of `O=c1c(-c2cnn(CC(F)(F)C(F)(F)F)c2)c(C(F)(F)F)nc2ccccn12` [Example 39-5, 3-[1-(2,2,3,3,3-pentafluoropropyl)-1H-pyrazol-4-yl]-2-(trifluoromethyl)-4H-pyrido[1,2-a]pyrimidin-4-one] it was 8.9 nM; in that of `Cc1ccc2nc(C(F)(F)F)c(-c3cnn(CC(F)(F)C(F)(F)F)c3)c(=O)n2n1` [Example 39-32, 7-methyl-3-[1-(2,2,3,3,3-pentafluoropropyl)-1H-pyrazol-4-yl]-2-(trifluoromethyl)-4H-pyrimido[1,2-b]pyridazin-4-one], 154 nM. The compound `C[S+]([O-])c1ccn2c(=O)c(-c3ccc(OCC(F)(F)F)cc3)c(C(F)(F)F)nc2c1` (stereo not drawn) [Example 15-1, 8-(Methylsulfinyl)-3-(4-(2,2,2-trifluoroethoxy)phenyl)-2-(trifluoromethyl)-4H-pyrido[1,2-a]pyrimidin-4-one] returned an IC50 of 441 nM. On to `O=c1c(-c2cnc(OCC(F)(F)F)nc2)c(C(F)(F)F)nc2n1CCOC2` [Example 39-39, 3-[2-(2,2,2-trifluoroethoxy)pyrimidin-5-yl]-2-(trifluoromethyl)-4H,6H,7H,9H-pyrimido[2,1-c][1,4]oxazin-4-one], for which the IC50 is greater than 67000 nM. As for `COc1ccn2c(=O)c(-c3ccc(OCC(F)(F)F)cc3Cl)c(C(F)(F)F)nc2c1` [Example 8-3, 3-(2-chloro-4-(2,2,2-trifluoroethoxy)phenyl)-8-methoxy-2-(trifluoromethyl)-4H-pyrido[1,2-a]pyrimidin-4-one], the IC50 turned out to be 22.5 nM.

Compound `Cc1cn2c(=O)c(-c3cnc(OCC(F)(F)F)nc3)c(C(F)(F)F)nc2cn1` [Example 39-30, 7-methyl-3-[2-(2,2,2-trifluoroethoxy)pyrimidin-5-yl]-2-(trifluoromethyl)-4H-pyrazino[1,2-a]pyrimidin-4-one] showed a half-maximal inhibitory concentration (IC50) greater than 67000 nM.

`O=c1c(-c2cnn(CC(F)(F)C(F)(F)F)c2)c(C(F)(F)F)nc2cc(C3CC3)ccn12` [Example 1-87, 8-cyclopropyl-3-(1-(2,2,3,3,3-pentafluoropropyl)-1H-pyrazol-4-yl)-2-(trifluoromethyl)-4H-pyrido[1,2-a]pyrimidin-4-one] displayed a half-maximal inhibitory concentration (IC50) of 85.9 nM. On to `COc1ccc2nc(C(F)(F)F)c(-c3cnc(OCC(F)(F)F)nc3)c(=O)n2n1` [Example 39-15, 7-methoxy-3-[2-(2,2,2-trifluoroethoxy)pyrimidin-5-yl]-2-(trifluoromethyl)-4H-pyrimido[1,2-b]pyridazin-4-one], for which the half-maximal inhibitory concentration (IC50) was greater than 67000 nM. Regarding `CN(C(=O)F)c1ccn2c(=O)c(-c3cnn(CC(F)(F)C(F)(F)F)c3)c(C(F)(F)F)nc2c1` [Example 23, Methyl(4-oxo-3-(1-(2,2,3,3,3-pentafluoropropyl)-1H-pyrazol-4-yl)-2-(trifluoromethyl)-4H-pyrido[1,2-a]pyrimidin-8-yl)carbamyl fluoride], the IC50 came to 1.6 nM. Regarding `CCc1ccn2c(=O)c(-c3ccc(OCC(F)(F)F)cc3)c(C(F)(F)F)nc2c1` [Example 2-1, 8-Ethyl-3-(4-(2,2,2-trifluoroethoxy)phenyl)-2-(trifluoromethyl)-4H-pyrido[1,2-a]pyrimidin-4-one], the 50% inhibitory concentration (IC50) was 22.6 nM. Compound `COc1ccn2c(=O)c(-c3cnn(C[C@H]4CC4(F)F)c3)c(C(F)(F)F)nc2c1` [Example 69, 3-(1-{[(1R)-2,2-Difluorocyclopropyl]methyl}-1H-pyrazol-4-yl)-8-methoxy-2-(trifluoromethyl)-4H-pyrido[1,2-a]pyrimidin-4-one] showed a half-inhibitory concentration (IC50) of 18.2 nM. The compound `O=c1c(-c2ccc(OCC(F)(F)F)nc2)c(C(F)(F)F)nc2ccccn12` [Example 20, 3-(6-(2,2,2-Trifluoroethoxy)-3-pyridinyl)-2-(trifluoromethyl)-4H-pyrido[1,2-a]pyrimidin-4-one] came in with an IC50 of 109 nM.

`COc1ccn2c(=O)c(-c3cnn(CC(F)(F)C(F)(F)F)c3)c(C(F)(F)F)nc2c1Cl` [Example 39-3, 9-chloro-8-methoxy-3-[1-(2,2,3,3,3-pentafluoropropyl)-1H-pyrazol-4-yl]-2-(trifluoromethyl)-4H-pyrido[1,2-a]pyrimidin-4-one] came in with a half-maximal inhibitory concentration (IC50) of 188 nM. For the compound `C[S@+]([O-])c1ccn2c(=O)c(-c3cnn(CC(F)(F)C(F)(F)F)c3)c(C(F)(F)F)nc2c1` [Example 15-5, 8-((S)-methylsulfinyl)-3-(1-(2,2,3,3,3-pentafluoropropyl)-1H-pyrazol-4-yl)-2-(trifluoromethyl)-4H-pyrido[1,2-a]pyrimidin-4-one], half-maximal inhibition (IC50) required 159 nM. As to `CC(C)c1ccn2c(=O)c(-c3ccc(OCC(F)(F)F)cc3)c(C(F)(F)F)nc2c1` [Example 1-32, 8-(2-propanyl)-3-(4-(2,2,2-trifluoroethoxy)phenyl)-2-(trifluoromethyl)-4H-pyrido[1,2-a]pyrimidin-4-one], the 50% inhibitory concentration (IC50) amounted to 421 nM.

With `O=c1c(-c2cnn(CC(F)(F)C(F)(F)F)c2)c(C(F)(F)F)nc2cnccn12` [Example 39-25, 3-[1-(2,2,3,3,3-pentafluoropropyl)-1H-pyrazol-4-yl]-2-(trifluoromethyl)-4H-pyrazino[1,2-a]pyrimidin-4-one], the IC50 amounted to 3.7 nM. For `O=c1c(-c2cnc(OCC(F)(F)F)nc2)c(C(F)(F)F)nc2ccc(C3CC3)cn12` [Example 39-20, 7-cyclopropyl-3-[2-(2,2,2-trifluoroethoxy)pyrimidin-5-yl]-2-(trifluoromethyl)-4H-pyrido[1,2-a]pyrimidin-4-one], the half-inhibitory concentration (IC50) is greater than 67000 nM. `O=c1c(-c2cnn(CCC(F)(F)F)c2)c(C(F)(F)F)nc2ccc(C3CC3)cn12` [Example 39-22, 7-cyclopropyl-2-(trifluoromethyl)-3-[1-(3,3,3-trifluoropropyl)-1H-pyrazol-4-yl]-4H-pyrido[1,2-a]pyrimidin-4-one] showed a half-maximal inhibitory concentration (IC50) of 2950 nM.

In the case of `O=c1c(-c2cnn(CC(F)(F)C(F)(F)F)c2)c(C(F)(F)F)nc2cc(OCCl)ccn12` [Example 46, 8-(Chloromethoxy)-3-[1-(2,2,3,3,3-pentafluoropropyl)-1H-pyrazol-4-yl]-2-(trifluoromethyl)-4H-pyrido[1,2-a]pyrimidin-4-one], it took 16.6 nM to reach half-maximal inhibition (IC50).

With `COc1ccn2c(=O)c(-c3ccc(OCC#N)cc3)c(C(F)(F)F)nc2n1` [Example 1-40, (4-(8-methoxy-4-oxo-2-(trifluoromethyl)-4H-pyrimido[1,2-a]pyrimidin-3-yl)phenoxy)acetonitrile], the 50% inhibitory concentration (IC50) is 18.6 nM. Next, `COc1ccn2c(=O)c(-c3nc(OCC(F)(F)F)cs3)c(C(F)(F)F)nc2c1` [Example 51, 8-Methoxy-3-[4-(2,2,2-trifluoroethoxy)-1,3-thiazol-2-yl]-2-(trifluoromethyl)-4H-pyrido[1,2-a]pyrimidin-4-one]: 2980 nM; `O=c1c(-c2cnn(CC(F)(F)C(F)(F)F)c2)c(C(F)(F)F)nc2cc(CF)ccn12` [Example 13-2, 8-(fluoromethyl)-3-(1-(2,2,3,3,3-pentafluoropropyl)-1H-pyrazol-4-yl)-2-(trifluoromethyl)-4H-pyrido[1,2-a]pyrimidin-4-one]: 20.5 nM; `COC(=O)c1ccc2nc(C(F)(F)F)c(-c3cnn(CC(F)(F)C(F)(F)F)c3)c(=O)n2c1` [Example 39-16, methyl 4-oxo-3-[1-(2,2,3,3,3-pentafluoropropyl)-1H-pyrazol-4-yl]-2-(trifluoromethyl)-4H-pyrido[1,2-a]pyrimidine-7-carboxylate]: 35100 nM. Compound `COCc1ccc2nc(C(F)(F)F)c(-c3cnn(CC(F)(F)C(F)(F)F)c3)c(=O)n2c1` [Example 39-24, 7-(methoxymethyl)-3-[1-(2,2,3,3,3-pentafluoropropyl)-1H-pyrazol-4-yl]-2-(trifluoromethyl)-4H-pyrido[1,2-a]pyrimidin-4-one] showed an IC50 of 1520 nM.
